# Assay results published in patent publication US20070213301A1 (ACHILLION PHARMACEUTICALS, INC., priority 2006, published 2007).
# pEC50: −log10 of the molar value.
# System: HCV replicon
# Assay: HCV replicon replication assay (NPTII ELISA)
# Assay type: cell-based, Hepatitis C virus (Huh-7 cells)
# Conditions: Hepatitis C virus, Huh-7, 72 h, inhibition of HCV replicon replication in Huh-7 HCV replicon-containing cells, three days incubation, NPT level by ELISA; read-out: EC50
# Method in brief: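 Huh-7 cells carrying a Bartenschlager NPTII (neo) HCV replicon, treated 3 days at 37 °C with compound, generally 6 concentrations from 10 to 0.03 micromolar, in equal DMSO across wells. NPTII level, proportional to replication, read by capture ELISA on methanol:acetone-fixed cells; interferon alpha positive control; toxicity scored visually or by MTS.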
row,SMILES,pEC50
1,"CCCCOc1ccc(N(C(N)=O)c2nc(-c3ccc(F)c(F)c3)cs2)cc1C(F)(F)F [Compound 138, 1-(4-butoxy-3-(trifluoromethyl)phenyl)-1-(4-(3,4-difluorophenyl)thiazol-2-yl)urea]",> 6.00
2,"CCCCCCCC(F)(F)c1ccc(N(C(C)=O)c2nc(-c3cccnc3)cs2)cc1 [Compound 154, N-(4-(1,1-difluorooctyl)phenyl)-N-(4-(pyridin-3-yl)thiazol-2-yl)acetamide]",> 6.00
3,"CCCCCCOc1ccc(N(C(N)=O)c2nc(-c3ccc(C)nc3)cs2)cc1 [Compound 143, 1-(4-(hexyloxy)phenyl)-1-(4-(6-methylpyridin-3-yl)thiazol-2-yl)urea]",5.00 to 6.00
4,"NC(=O)N(c1ccc(OCC2CCCCC2)c(F)c1)c1nc(-c2ccc3c(c2)NC(=O)CO3)cs1 [Compound 116, 1-(4-(cyclohexylmethoxy)-3-fluorophenyl)-1-(4-(3-oxo-3,4-dihydro-2H-benzo[b][1,4]oxazin-6-yl)thiazol-2-yl)urea]",< 5.00
5,"CCCCCCCCOc1ccc(N(C(N)=O)c2nc(-c3ccc(F)cc3)cs2)cc1 [Compound 61, 1-(4-(4-fluorophenyl)thiazol-2-yl)-1-(4-(octyloxy)phenyl)urea]",5.00 to 6.00
6,"CCCCCOc1ccc(N(C)c2nc(C(=O)Nc3cccnc3)cs2)cc1C(F)(F)F [Compound 6, 2-(methyl(4-(pentyloxy)-3-(trifluoromethyl)phenyl)amino)-N-(pyridin-3-yl)thiazole-4-carboxamide]",5.00 to 6.00
7,"CCCCCCCCOc1ccc(N(C(=O)C(=O)OCC)c2nc(-c3cccnc3)cs2)cc1 [Compound 66, ethyl 2-((4-(octyloxy)phenyl)(4-(pyridin-3-yl)thiazol-2-yl)amino)-2-oxoacetate]",> 6.00
8,"CC(C)COc1ccc(N(C(N)=O)c2nc(-c3ccc4c(c3)NC(=O)CO4)cs2)cc1C(F)(F)F [Compound 149, 1-(4-isobutoxy-3-(trifluoromethyl)phenyl)-1-(4-(3-oxo-3,4-dihydro-2H-benzo[b][1,4]oxazin-6-yl)thiazol-2-yl)urea]",> 6.00
9,"CCCCCOc1ccc(N(C(=O)CO)c2nc(-c3cccnc3)cs2)cc1C(F)(F)F [Compound 62, 2-hydroxy-N-(4-(pentyloxy)-3-(trifluoromethyl)phenyl)-N-(4-(pyridin-3-yl)thiazol-2-yl)acetamide]",> 6.00
10,"C/C=N/N(c1ccc(OCCCCCCCC)c(C(F)(F)F)c1)c1nc(-c2cccnc2)c(F)s1 [Compound 191, (E)-2-(2-ethylidene-1-(4-(octyloxy)-3-(trifluoromethyl)phenyl)hydrazinyl)-5-fluoro-4-(pyridin-3-yl)thiazolo]",5.00 to 6.00
11,"CCCCCOc1ccc(N(C(=O)C(=O)OC)c2nc(-c3cccnc3)cs2)cc1F [Compound 27, methyl 2-((3-fluoro-4-(pentyloxy)phenyl)(4-(pyridin-3-yl)thiazol-2-yl)amino)-2-oxoacetate]",> 6.00
12,"CCCCCOc1ccc(N(C(N)=O)c2nc(-c3ccc(F)c(F)c3)cs2)cc1F [Compound 113, 1-(4-(3,4-difluorophenyl)thiazol-2-yl)-1-(3-fluoro-4-(pentyloxy)phenyl)urea]",5.00 to 6.00
13,"CCCCCOc1ccc(N(C(=O)OC)c2nc(-c3ccc(F)c(F)c3)cs2)cc1C(F)(F)F [Compound 56, methyl 4-(3,4-difluorophenyl)thiazol-2-yl(4-(pentyloxy)-3-(trifluoromethyl)phenyl)carbamate]",> 6.00
14,"CCCCCCCCc1ccc(N(C(C)=O)c2nc(-c3cccnc3)c(F)s2)cc1C(F)(F)F [Compound 175, N-(5-fluoro-4-(pyridin-3-yl)thiazol-2-yl)-N-(4-octyl-3-(trifluoromethyl)phenyl)acetamide]",> 6.00
15,"CCCCCCCCOc1ccc(N(C(N)=O)c2nc(-c3cccnc3)c(F)s2)cc1C(F)(F)F [Compound 176, 1-(5-fluoro-4-(pyridin-3-yl)thiazol-2-yl)-1-(4-(octyloxy)-3-(trifluoromethyl)phenyl)urea]",> 6.00
16,"CCCCCOc1ccc(N(C(=O)C(=O)OC)c2nc(C(=O)Nc3cccnc3)cs2)cc1C(F)(F)F [Compound 30, methyl 2-oxo-2-((4-(pentyloxy)-3-(trifluoromethyl)phenyl)(4-(pyridin-3-ylcarbamoyl)thiazol-2-yl)amino)acetate]",> 6.00
